Measured values published in patent publication US10428060B2, “PI-kinase inhibitors with anti-infective activity” (The Board of Trustees of the Leland Stanford Junior …, priority 2011, dated 2019).

Key:
HCV genotype 2a = assay: microbe, parasite or virus in culture; format: cell-based; conditions: Hepatitis C virus, Huh7.5, read-out: HCV2a EC50
HRV = assay: Rhinovirus antiviral assay; format: cell-based; conditions: Human rhinovirus sp.
PI3KC2G = target: T1, PI3KC2G (Homo sapiens, UniProt O75747); assay: PI3KC2G kinase assay; format: biochemical
T1 sequence (O75747 1-1486): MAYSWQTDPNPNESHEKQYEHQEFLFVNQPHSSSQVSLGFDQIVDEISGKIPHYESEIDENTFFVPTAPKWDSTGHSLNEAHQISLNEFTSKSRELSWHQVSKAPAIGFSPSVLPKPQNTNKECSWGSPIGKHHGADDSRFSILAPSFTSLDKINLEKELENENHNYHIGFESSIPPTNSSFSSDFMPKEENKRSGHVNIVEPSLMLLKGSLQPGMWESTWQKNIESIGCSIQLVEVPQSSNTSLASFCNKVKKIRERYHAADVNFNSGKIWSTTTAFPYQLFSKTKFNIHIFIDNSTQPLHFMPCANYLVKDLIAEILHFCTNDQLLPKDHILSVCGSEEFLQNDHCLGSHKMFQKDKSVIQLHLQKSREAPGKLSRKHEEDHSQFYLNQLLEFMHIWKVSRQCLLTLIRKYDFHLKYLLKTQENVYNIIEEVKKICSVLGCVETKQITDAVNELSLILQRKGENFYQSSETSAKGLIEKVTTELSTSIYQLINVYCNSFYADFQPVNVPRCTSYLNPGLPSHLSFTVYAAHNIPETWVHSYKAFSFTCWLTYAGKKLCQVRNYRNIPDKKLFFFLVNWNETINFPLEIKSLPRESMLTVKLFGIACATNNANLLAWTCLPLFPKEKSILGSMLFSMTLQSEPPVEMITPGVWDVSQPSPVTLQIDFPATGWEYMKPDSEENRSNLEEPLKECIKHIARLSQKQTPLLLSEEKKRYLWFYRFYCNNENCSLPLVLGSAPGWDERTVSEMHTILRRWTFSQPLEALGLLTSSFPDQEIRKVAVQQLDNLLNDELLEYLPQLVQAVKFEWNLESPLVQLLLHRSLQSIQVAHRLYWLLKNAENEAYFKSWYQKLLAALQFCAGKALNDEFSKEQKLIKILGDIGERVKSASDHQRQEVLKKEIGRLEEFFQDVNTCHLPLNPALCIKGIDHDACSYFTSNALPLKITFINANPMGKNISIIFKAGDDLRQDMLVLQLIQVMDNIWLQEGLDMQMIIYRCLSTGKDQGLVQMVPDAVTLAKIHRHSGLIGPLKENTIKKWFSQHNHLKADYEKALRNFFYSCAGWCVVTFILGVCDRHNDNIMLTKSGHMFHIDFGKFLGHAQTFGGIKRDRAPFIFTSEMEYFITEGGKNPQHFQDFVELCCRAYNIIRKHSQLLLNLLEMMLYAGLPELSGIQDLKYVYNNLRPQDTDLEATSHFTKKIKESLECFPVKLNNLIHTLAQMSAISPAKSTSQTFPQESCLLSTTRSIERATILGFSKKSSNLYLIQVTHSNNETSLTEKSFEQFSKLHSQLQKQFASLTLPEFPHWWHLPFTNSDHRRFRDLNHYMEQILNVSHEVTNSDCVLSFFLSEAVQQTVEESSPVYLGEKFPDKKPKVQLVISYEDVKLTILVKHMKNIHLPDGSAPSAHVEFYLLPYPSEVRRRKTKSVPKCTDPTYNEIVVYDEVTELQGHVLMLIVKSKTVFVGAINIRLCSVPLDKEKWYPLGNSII

PI4KIIIA = target: T2, PI4KIIIA (Homo sapiens, UniProt P42356); assay: PI4KIIIA kinase assay; format: biochemical
T2 construct: made in house; host or cells: COS-7 cells, transient transfection, anti-HA immunoprecipitate on protein G Sepharose beads
T2 sequence (P42356 whole entry): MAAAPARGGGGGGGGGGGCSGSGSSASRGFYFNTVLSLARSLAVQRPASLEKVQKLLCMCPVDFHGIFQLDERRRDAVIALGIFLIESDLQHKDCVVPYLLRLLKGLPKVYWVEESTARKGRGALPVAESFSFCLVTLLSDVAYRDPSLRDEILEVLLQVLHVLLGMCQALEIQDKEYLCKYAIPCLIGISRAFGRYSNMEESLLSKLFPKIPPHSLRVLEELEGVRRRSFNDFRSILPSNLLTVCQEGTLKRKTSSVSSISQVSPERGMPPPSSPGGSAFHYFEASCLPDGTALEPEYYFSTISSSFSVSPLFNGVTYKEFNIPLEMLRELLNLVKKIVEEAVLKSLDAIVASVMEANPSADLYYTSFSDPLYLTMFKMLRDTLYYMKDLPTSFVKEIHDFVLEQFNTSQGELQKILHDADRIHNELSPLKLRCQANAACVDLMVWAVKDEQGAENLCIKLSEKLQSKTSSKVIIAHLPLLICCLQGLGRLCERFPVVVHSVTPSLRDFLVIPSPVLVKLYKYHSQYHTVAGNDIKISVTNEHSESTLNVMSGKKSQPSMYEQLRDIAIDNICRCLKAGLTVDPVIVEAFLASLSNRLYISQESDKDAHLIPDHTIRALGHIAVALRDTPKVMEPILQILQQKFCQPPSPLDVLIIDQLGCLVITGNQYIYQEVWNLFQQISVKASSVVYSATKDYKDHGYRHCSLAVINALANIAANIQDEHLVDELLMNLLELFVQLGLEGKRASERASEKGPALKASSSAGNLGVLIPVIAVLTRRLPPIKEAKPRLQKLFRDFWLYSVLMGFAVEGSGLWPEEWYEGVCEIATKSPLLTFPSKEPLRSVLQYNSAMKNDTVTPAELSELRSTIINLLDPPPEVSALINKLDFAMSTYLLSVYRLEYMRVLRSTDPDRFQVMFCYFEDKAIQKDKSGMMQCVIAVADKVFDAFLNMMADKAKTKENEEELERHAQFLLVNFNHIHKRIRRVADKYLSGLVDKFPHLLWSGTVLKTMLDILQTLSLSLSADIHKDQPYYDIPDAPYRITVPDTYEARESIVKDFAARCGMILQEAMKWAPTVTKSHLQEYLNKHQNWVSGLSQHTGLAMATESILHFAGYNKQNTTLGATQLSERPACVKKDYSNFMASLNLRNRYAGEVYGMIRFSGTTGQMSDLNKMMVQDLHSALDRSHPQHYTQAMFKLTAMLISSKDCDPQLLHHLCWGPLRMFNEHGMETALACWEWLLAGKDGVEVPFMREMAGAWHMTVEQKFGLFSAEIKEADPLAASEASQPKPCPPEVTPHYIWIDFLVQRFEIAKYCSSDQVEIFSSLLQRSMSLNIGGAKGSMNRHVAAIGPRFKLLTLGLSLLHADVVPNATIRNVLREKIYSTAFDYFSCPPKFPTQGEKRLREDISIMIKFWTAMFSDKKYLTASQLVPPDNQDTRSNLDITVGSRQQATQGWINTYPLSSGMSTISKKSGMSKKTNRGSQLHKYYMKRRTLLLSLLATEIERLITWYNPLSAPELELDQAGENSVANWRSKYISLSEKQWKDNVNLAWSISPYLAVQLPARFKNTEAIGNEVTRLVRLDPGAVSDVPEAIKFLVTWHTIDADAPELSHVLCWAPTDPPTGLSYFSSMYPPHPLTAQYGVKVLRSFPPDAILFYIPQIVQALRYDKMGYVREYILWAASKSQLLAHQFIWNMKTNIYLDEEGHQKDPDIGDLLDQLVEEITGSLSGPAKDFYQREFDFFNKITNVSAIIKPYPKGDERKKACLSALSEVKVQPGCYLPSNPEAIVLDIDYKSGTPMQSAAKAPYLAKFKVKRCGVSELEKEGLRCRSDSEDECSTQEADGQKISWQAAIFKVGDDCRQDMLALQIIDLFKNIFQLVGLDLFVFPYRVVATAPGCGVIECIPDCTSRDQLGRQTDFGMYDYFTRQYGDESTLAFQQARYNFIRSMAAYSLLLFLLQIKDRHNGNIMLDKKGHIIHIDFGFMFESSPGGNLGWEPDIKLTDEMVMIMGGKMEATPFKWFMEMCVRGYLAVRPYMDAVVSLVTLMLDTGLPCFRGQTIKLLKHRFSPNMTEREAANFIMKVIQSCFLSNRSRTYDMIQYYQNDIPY
Description: In the assays described here, p110α-p85 complex and p110γ were acquired from Millipore. Assays were performed with Lα-phosphatidylinositol (Avanti) as described in Knight et al. Nat Protoc. 2007; 2 (10):2459-66. Inhibitor series were prepared 10% DMSO as 5× stocks for the assay. Assays of HsVps34 were performed as described in Knight et al, except that the final assay buffer composition used was changed to 20 mM HEPES 7.5, 100 mM NaCl, 3 mM MgCl, 1 mg/mL PI and 44 nM hvps34 was used in the assay. […] COS-7 cells were cultured in 10 cm dishes and transfected at 70% confluence with 10 μg of plasmid DNA (HA-tagged bovine PI4KIIIβ, HA-tagged human PI4KIIIα) using Lipofectamine 2000 and 5 ml Opti-MEM following the manufacturer's instructions. After 5 hours the transfection medium was replaced with 10 ml complete DMEM. 36 hrs post transfection, cells were washed once with 5 ml PBS (pH 7.4) and lysed in 1 ml of lysis buffer (1) on ice. Lysates were collected by scraping and after 15 min they were centrifuged at 13,000 rpm for 10 min. To the lysates was added 200 μl of protein G Sepharose 4 fast flow beads that were prewashed with PBS and lysis buffer and 2 μg of anti-HA antibody. The tubes were then incubated overnight at 4 degrees C. in a tube rotator. The Sepharose beads in the lysate were washed twice with 150 mM NaCl in RIPA buffer, twice with RIPA buffer and once with kinase buffer (50 mM Tris/HCl, pH 7.5, 20 mM MgCl2, 1 mM EGTA, 1 mM PtdIns, 0.4% Triton X-100, 0.5 mg/mL BSA) and finally the beads were resuspended in 200 μL kinase buffer. Kinase reactions were run in a mixture of 45 μL of PI buffer (1 mM PI in kinase buffer), 10 μL of immunoprecipitated beads, 2 µL of inhibitors (dissolved and diluted in DMSO) or DMSO and 5 μL of [γ-^32P]-ATP (1 mM and 2 μCi/tube). The immunoprecipitates in PI buffer were pre-incubated with the drugs for 20 min prior the initiation of kinase reaction by adding ATP and the reactions were carried out for 30 min in 15 ml polypropolyne tubes. […] Samples were counted in a scintillation beta counter after adding 5 ml of Instafluor (Perkin-Elmer). […]

PI3K p110g = target: T3, PI3K p110g (Homo sapiens, UniProt P48736); assay: PI3K p110g kinase assay; format: biochemical
T3 construct: purchased Millipore
T3 sequence (P48736 whole entry): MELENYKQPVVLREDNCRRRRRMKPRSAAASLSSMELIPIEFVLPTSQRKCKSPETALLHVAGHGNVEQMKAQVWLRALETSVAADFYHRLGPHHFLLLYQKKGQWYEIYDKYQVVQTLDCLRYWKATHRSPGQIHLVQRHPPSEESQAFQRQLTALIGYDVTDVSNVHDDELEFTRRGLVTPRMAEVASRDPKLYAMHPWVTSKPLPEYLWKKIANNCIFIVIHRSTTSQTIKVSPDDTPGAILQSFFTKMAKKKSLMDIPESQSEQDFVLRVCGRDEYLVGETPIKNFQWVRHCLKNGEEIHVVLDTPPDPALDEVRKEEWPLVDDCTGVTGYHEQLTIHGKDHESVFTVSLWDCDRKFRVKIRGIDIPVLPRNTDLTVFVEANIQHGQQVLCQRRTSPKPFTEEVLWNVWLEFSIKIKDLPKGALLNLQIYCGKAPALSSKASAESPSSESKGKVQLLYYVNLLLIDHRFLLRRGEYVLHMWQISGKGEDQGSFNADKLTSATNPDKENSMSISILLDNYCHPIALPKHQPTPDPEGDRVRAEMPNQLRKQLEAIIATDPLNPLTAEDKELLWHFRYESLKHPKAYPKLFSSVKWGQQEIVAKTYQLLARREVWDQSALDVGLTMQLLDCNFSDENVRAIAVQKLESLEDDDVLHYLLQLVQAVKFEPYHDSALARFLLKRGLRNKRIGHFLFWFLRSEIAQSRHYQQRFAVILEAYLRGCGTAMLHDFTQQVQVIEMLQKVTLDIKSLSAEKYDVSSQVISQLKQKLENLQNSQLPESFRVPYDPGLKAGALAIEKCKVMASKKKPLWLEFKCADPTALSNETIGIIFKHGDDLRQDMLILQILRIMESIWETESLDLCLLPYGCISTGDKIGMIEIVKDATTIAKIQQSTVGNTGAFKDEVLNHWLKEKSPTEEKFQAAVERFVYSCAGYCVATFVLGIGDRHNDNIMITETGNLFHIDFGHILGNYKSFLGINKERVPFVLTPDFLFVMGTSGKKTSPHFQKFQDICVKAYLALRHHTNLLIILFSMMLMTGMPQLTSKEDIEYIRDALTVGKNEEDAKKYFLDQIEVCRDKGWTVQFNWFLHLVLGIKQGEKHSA

## COc1ncc(-c2sc(NC(=O)CC3CCOCC3)nc2C)cc1S(=O)(=O)NC1CCCC(O)C1 (centres unmarked) [Compound S-263]
HCV genotype 2a
  EC50: 1 to 100 nM
HRV
  EC50: 1 to 10 µM
PI3KC2G
  IC50: 100 to 1000 nM
PI4KIIIA
  IC50: < 100 nM
PI3K p110g
  IC50: 1 to 10 µM
